According to patent US7452865B2, “Antagonistic analogs of GH RH (2003)” (The Administrare's of the Tulane Educational Fund, priority 2004, dated 2008):
Marks after values point to notes of the source that are not given here. Square brackets hold non-standard residues; d marks the D form. Peptide text beside a SMILES is read from it. * marks the point of attachment. Bpa = N[C@@H](Cc1ccc(C(=O)c2ccccc2)cc1)C(=O)O; hArg = N=C(N)NCCCC[C@H](N)C(=O)O; Nle = CCCC[C@H](N)C(=O)O; Abu = CC[C@H](N)C(=O)O; PhAc = O=C(Cc1ccccc1)*

Columns and labels:
[1] = test system: hGH-RH(1-29)NH2 induced GH release; assay: Inhibition of GH release in superfused rat pituitary system; format: cell-based; settings: for GH response (% of control) 0 min / GH response (% of control) 30 min / GH response (% of control) 60 min / GH response (% of control) 90 min / GH response (% of control) 120 min: antagonist 30 nM; for GH response (% of control) 0 min: 1 nM hGH-RH(1-29)NH2 at 0 min; for GH response (% of control) 30 min: 1 nM hGH-RH(1-29)NH2 at 30 min; for GH response (% of control) 60 min: 1 nM hGH-RH(1-29)NH2 at 60 min; for GH response (% of control) 90 min: 1 nM hGH-RH(1-29)NH2 at 90 min; for GH response (% of control) 120 min: 1 nM hGH-RH(1-29)NH2 at 120 min; for endocrine antagonistic potency: inhibition of the GH release stimulated by hGH-RH(1-29)NH2 (in words): general statement, in vitro and in vivo
Procedure: The analogs were tested in vitro in a test described earlier (S. Vigh and A. V Schally, Peptides 5:241-[…], 1984) with modification (Z. Rekasi and A. V. Schally, P.N.A.S. 90:2146-2149, 1993).
Briefly, the cells are preincubated with peptides for 9 minutes (3 mL) at various concentrations. Immediately after the incubation, 1 nM hGH-RH(1-29)NH2 is administered for 3 minutes (1 mL) 10 minute response). To check the duration of the antagonistic effect of the analogue, 1 nM hGH-RH(1-29)NH2 is applied 30, 60, 90, and 120 minutes later for 3 minutes [30, 60, 90, 120 min responses]. Net integral values of the GH responses are evaluated. GH responses are compared to and expressed as percent of the original GH response induced by 1 nM GH-RH(1-29)NH2 The effect of the new antagonists are compared to that of [Ac-Tyr^1, D-Arg^2]hGH-RH(1-29)NH2, the “Standard antagonist”.
Rat GH levels in aliquots of undiluted and diluted superfusion samples were measured by double-antibody radioimmunoassay using materials supplied by the National Hormone and Pituitary Program, Baltimore, Md. The results of RIA were analyzed with a computer program developed in our institute (V. Csernus and A. V. Schally, in Neuroendocrine Research Methods, Harwood Academic (Greenstein, B. D. ed., London, pp. 71-109, 1991), hereby incorporated by reference.

[2] = test system: PC-3 human prostate cancer xenografts; assay: PC-3 xenografts in nude mice, Experiment 3: tumor growth; format: in vivo
Procedure: Male nude mice were implanted s.c. with 3 mm^3 pieces of PC-3 human hormone-independent prostate cancer tissue on both flanks. When tumors reached a volume of approximately 65 mm^3, the mice were divided into 7 experimental groups with 8 to 9 animals in each group and received single daily injections for 28 days as follows: 1. Control (vehicle solution); 2. JV-1-38 (10 μg/day s.c.); 3. Peptide 35 (10 μg/day s.c.); 4. Peptide 36 (10 μg/day s.c.); 5. Peptide 37 (10 μd/day s.c.); 6. Peptide 39 (10 μg/day s.c.); 7. Peptide 41 (10 μg/day s.c.). Tumor volumes were measured twice a week. The experiment was ended on day 28 by sacrificing the mice under Isofurane anesthesia. Resulting tumors were cleaned, weighed, and snapfrozen until further analyses. Trunk blood was collected from the abdominal aorta and serum was separated for RIA measurement of IGF-I. Statistical analyses of the measurement results were done by ANOVA followed by Fisher test; data are presented as the means±S.E.

[3] = test system: GH-RH receptor isoforms on membrane fractions of human PC-3 prostate tumors; format: binding; settings: general statement
Source text: Ligand competition assays with ^125I-labeled GH-RH antagonist JV-1-42 were used to determine the binding affinities of GH-RH analogs to the GH-RH receptor isoforms on membrane fractions of human PC-3 prostate tumors. The methods used have been described in detail (Halmos G, Schally A V, Varga J L, Plonowski A, Rekasi Z, Czompoly T, Proc Natl Acad Sci USA 97: 10555-10560, 2000; Halmos G, Schally A V, Czompoly T, Krupa M, Varga J L, Rekasi Z, J Clin Endocrinol Metab 87: 4707-4714, 2002), hereby incorporated by reference. Briefly, radioiodinated derivatives of JV-142 are prepared by the chloramine-T method. PC-3 tumors, grown as xenografts in nude mice, are used to prepare crude membranes. PC-3 membrane homogenates are incubated with [^125I]JV-142 and increasing concentrations (10^−12 to 10^−6 M) of nonradioactive antagonist peptides as competitors. The pellet is separated by centrifugation and counted for radioactivity in a gamma-counter. The final binding affinities are estimated by K1 (dissociation constant of the inhibitor-receptor complex) and are determined by the Ligand PC and McPherson computer programs of Munson and Rodbard (P. J. Munson and D. Rodbard, Anal. Biochem. […]: 220-239, 1980). Relative affinities (R.A.) compared to reference peptides such as JV-1-36 or JV-1-38, are calculated as the ratio of K1 of the reference peptide to the K, of the tested GH-RH antagonist.

[4] = 10 μg/day s.c., 28 days, vs control

Row | Molecule | GH response (% of control) 0 min [1] | GH response (% of control) 30 min [1] | GH response (% of control) 60 min [1] | GH response (% of control) 90 min [1] | GH response (% of control) 120 min [1] | endocrine antagonistic potency: inhibition of the GH release stimulated by hGH-RH(1-29)NH2 (in words) [1] | Tumor volume (mm^3) Final ([2]; 10 μg/day s.c., 28 days) | Tumor volume doubling time ([2]; 10 μg/day s.c., 28 days) | Tumor weight ([2]; 10 μg/day s.c., 28 days) | Tumor volume Final (% inhibition) [2, 4] | Tumor weight (% inhibition) [2, 4] | Tumor volume (mm^3) Initial ([2]; at start of treatment) | binding affinities to the tumoral receptors for GH-RH (in words) [3]
1 | [PhAc-Tyr^1, D-Arg^2, Phe(pCl)^6, Har^9, Phe(pNH2)^10, Abu^15, Nle^27, D-Arg^28, Har^29]hGH-RH(1-29)NH2 [Peptide 37] | 33 % of control | 12 % of control | 15 % of control | 15 % of control | 19 % of control | high endocrine antagonistic potencies | 323 ± 68.0* mm^3 | 12.7 ± 2.03 days | 440 ± 104 mg | (57%) | (37%) | 60.0 ± 13.0 mm^3 | –
2 | [CH3(CH2)6CO-Tyr^1, D-Arg^2, Phe(pCl)^6, Ala^8, His^9, Tyr(Et)^10, His^11, Abu^15, Nle^27, D-Arg^28, Har^29]hGH-RH(1-29)NHEt [Peptide 97] | – | – | – | – | – | – | – | – | – | – | – | – | extremely high binding affinities
3 | [CH3(CH2)14CO-Phe^0, D-Arg^2, Phe(pCl)^6, Arg^9, Abu^15, Nle^27, D-Arg^28, Har^29]hGH-RH(1-29)NH2 [Peptide 16] | 40 % of control | 62 % of control | 78 % of control | 73 % of control | 61 % of control | – | – | – | – | – | – | – | –
4 | [HOOC(CH2)4CO-Tyr^1, D-Arg^2, Phe(pCl)^6, Arg^9, Abu^15, Nle^27, D-Arg^28, Har^29]hGH-RH(1-29)NH2 [Peptide 3] | 52 % of control | 61 % of control | 56 % of control | 70 % of control | 149 % of control | – | – | – | – | – | – | – | –
5 | [PhAc-Tyr^1, D-Arg^2, Phe(pCl)^6, Har^9, Tyr(Me)^10, Orn^12, Abu^15, Nle^27, D-Arg^28, Har^29]hGH-RH(1-29)NHEt [Peptide 50] | 57 % of control | 65 % of control | 69 % of control | 74 % of control | 67 % of control | – | – | – | – | – | – | – | –
6 | [CH3(CH2)12CO-Tyr^1, D-Arg^2, Phe(pCl)^6, Arg^9, Abu^15, Nle^27, D-Arg^28, Har^29]hGH-RH(1-29)NH2 [Peptide 10] | 60 % of control | 30 % of control | 36 % of control | 37 % of control | 44 % of control | – | – | – | – | – | – | – | –
7 | [PhAc-Tyr^1, D-Arg^2, Phe(pCl)^6, Har^9, Tyr(Me)^10, Har^11, Abu^15, Nle^27, D-Arg^28, Har^29]hGH-RH(1-29)NH2 [Peptide 63] | 53 % of control | 47 % of control | 49 % of control | 51 % of control | – | – | – | – | – | – | – | – | –
8 | [Hca-Tyr^1, D-Arg^2, Phe(pCl)^6, Har^9, Tyr(Me)^10, Abu^15, Nle^27, D-Arg^28, Har^29, Har^30]hGH-RH(1-30)NHEt [Peptide 56] | 76 % of control | 83 % of control | 92 % of control | 80 % of control | 68 % of control | – | – | – | – | – | – | – | –
9 | CCCC[C@H](NC(=O)[C@@H](NC(=O)[C@H](CC(=O)O)NC(=O)[C@H](CCC(N)=O)NC(=O)[C@H](CC(C)C)NC(=O)[C@H](CC(C)C)NC(=O)[C@H](CCCCN)NC(=O)[C@H](CCCNC(=N)N)NC(=O)[C@H](C)NC(=O)[C@H](CO)NC(=O)[C@H](CC(C)C)NC(=O)[C@H](CCC(N)=O)NC(=O)[C@H](CC)NC(=O)[C@H](CC(C)C)NC(=O)[C@@H](NC(=O)[C@H](CCCCN)NC(=O)[C@H](CCCNC(=N)N)NC(=O)[C@H](Cc1ccc(C(=O)c2ccccc2)cc1)NC(=O)[C@H](CCCCNC(=N)N)NC(=O)[C@H](CC(N)=O)NC(=O)[C@@H](NC(=O)[C@H](Cc1ccc(O)cc1)NC(=O)[C@@H](NC(=O)[C@H](C)NC(=O)[C@H](CC(=O)O)NC(=O)[C@@H](CCCNC(=N)N)NC(=O)[C@H](Cc1c[nH]cn1)NC(=O)Cc1ccccc1)[C@@H](C)CC)[C@@H](C)O)C(C)C)[C@@H](C)CC)C(=O)N[C@H](CCCNC(=N)N)C(=O)N[C@@H](CCCCNC(=N)N)C(N)=O [Peptide 42, [PhAc-His^1, D-Arg^2, Tyr^6, Har^9, Bpa^10, Abu^15, Nle^27, D-Arg^28, Har^29]hGH-RH(1-29)NH2] (PhAc-H[dR]DAIYTN[hArg][Bpa]RKVL[Abu]QLSARKLLQDI[Nle][dR][hArg]-NH2) | 52 % of control | 7 % of control | 9 % of control | 8 % of control | 13 % of control | high endocrine antagonistic potencies | – | – | – | – | – | – | –
10 | [CH3(CH2)10CO-Tyr^1, D-Arg^2, Phe(pCl)^6, Arg^9, Abu^15, Nle^27, D-Arg^28, Har^29]hGH-RH(1-29)NH2 [Peptide 8] | 37 % of control | 31 % of control | 48 % of control | 44 % of control | 40 % of control | – | – | – | – | – | – | – | –
11 | [PhAc-Tyr^1, D-Arg^2, Phe(pCl)^6, Har^9, Tyr(Me)^10, Amp^11, Abu^15, Nle^27, D-Arg^28, Har^29]hGH-RH(1-29)NH2 [Peptide 64] | 59 % of control | 54 % of control | 70 % of control | 50 % of control | 56 % of control | – | – | – | – | – | – | – | –
